Read-outs that look alike come from different tables or passages of the source.
What was measured:
Format in all cases: biochemical
[1] = target: Pim3 kinase (Homo sapiens, UniProt Q86V86); assay: Pim3 ATP depletion assay
[2] = target: Pim1 kinase (Homo sapiens, UniProt P11309); assay: Pim1 ATP depletion assay; details: Pim1 ATP depletion assay;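 note: Luciferase-luciferin luminescence readout of residual ATP after PIM1 transfers phosphate to a peptide substrate, 40 µM ATP added, reaction run to roughly half ATP consumption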
Sequence of Pim1 kinase (P11309 whole entry): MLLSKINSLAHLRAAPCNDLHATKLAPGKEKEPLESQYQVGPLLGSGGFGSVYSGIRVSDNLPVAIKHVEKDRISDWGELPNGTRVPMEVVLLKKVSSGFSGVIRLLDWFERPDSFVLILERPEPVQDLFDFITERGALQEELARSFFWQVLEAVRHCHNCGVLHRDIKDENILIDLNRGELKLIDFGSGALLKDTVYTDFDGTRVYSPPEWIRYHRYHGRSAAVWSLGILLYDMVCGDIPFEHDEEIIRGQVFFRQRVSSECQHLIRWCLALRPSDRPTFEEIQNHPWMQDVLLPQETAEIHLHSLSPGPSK

[3] = target: Pim2 kinase (Homo sapiens, UniProt Q9P1W9); assay: Pim2 ATP depletion assay;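 note: Luciferase-based luminescent readout of ATP remaining after PIM2 phosphorylates a BAD peptide, final 5 nM enzyme, 4 µM ATP, 10 µM peptide, 2.5% DMSO, run to roughly half ATP consumption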
Sequence of Pim2 kinase (Q9P1W9 whole entry): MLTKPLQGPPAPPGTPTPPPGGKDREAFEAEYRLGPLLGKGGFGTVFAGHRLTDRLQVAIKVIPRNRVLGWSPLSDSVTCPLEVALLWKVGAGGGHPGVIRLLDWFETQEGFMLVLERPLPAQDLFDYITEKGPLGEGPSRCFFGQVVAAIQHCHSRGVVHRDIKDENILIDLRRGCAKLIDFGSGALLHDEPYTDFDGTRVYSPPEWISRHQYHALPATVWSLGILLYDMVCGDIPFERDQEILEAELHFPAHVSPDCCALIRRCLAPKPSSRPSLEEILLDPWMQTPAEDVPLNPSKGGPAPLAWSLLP

Measured: IC50

COc1ccc(F)c(-c2nc(C(=O)Nc3cnccc3N3CCC[C@H](N)C3)c(N)cc2F)c1F [Example 510, 3-Amino-6-(2,6-difluoro-3-methoxy-phenyl)-5-fluoro-pyridine-2-carboxylic acid (3-amino-3,4,5,6-tetrahydro-2H-[1,4′]bipyridinyl-3′-yl)-amide]
< 1 µM: [1]; read-out: IC50 (μM) PIM3 | [2]; read-out: IC50 (μM) PIM1 | [3]; read-out: IC50 (μM) PIM2

COc1ncccc1-c1nc(C(=O)Nc2cnccc2N2CCC[C@H](N)C2)c(N)cc1F [Example 511, 5-Amino-3-fluoro-2′-methoxy-[2,3′]bipyridinyl-6-carboxylic acid (3-amino-3,4,5,6-tetrahydro-2H-[1,4′]bipyridinyl-3′-yl)-amide]
< 1 µM: [1]; read-out: IC50 (μM) PIM3 | [2]; read-out: IC50 (μM) PIM1 | [3]; read-out: IC50 (μM) PIM2

COc1cccc(-c2nc(C(=O)Nc3cnccc3N3CCC[C@H](N)C3)c(N)cc2F)n1 [Example 512, 5-Amino-3-fluoro-6′-methoxy-[2,2′]bipyridinyl-6-carboxylic acid (3-amino-3,4,5,6-tetrahydro-2H-[1,4′]bipyridinyl-3′-yl)-amide]
< 1 µM: [1]; read-out: IC50 (μM) PIM3 | [2]; read-out: IC50 (μM) PIM1 | [3]; read-out: IC50 (μM) PIM2

Nc1cc(F)c(-c2ccncc2)nc1C(=O)Nc1cnccc1N1CCC[C@H](N)C1 [Example 513, 5-Amino-3-fluoro-[2,4′]bi-pyridinyl-6-carboxylic acid (3-amino-3,4,5,6-tetrahydro-2H-[1,4′]bipyridinyl-3′-yl)-amide]
< 1 µM: [1]; read-out: IC50 (μM) PIM3 | [2]; read-out: IC50 (μM) PIM1 | [3]; read-out: IC50 (μM) PIM2

Nc1ccc(-c2nc(C(=O)Nc3cnccc3N3CCC[C@H](N)C3)c(N)cc2F)cn1 [Example 514, 5,6′-Diamino-3-fluoro-[2,3′]bi-pyridinyl-6-carboxylic acid (3-amino-3,4,5,6-tetrahydro-2H-[1,4′]bipyridinyl-3′-yl)-amide]
< 1 µM: [1]; read-out: IC50 (μM) PIM3 | [2]; read-out: IC50 (μM) PIM1 | [3]; read-out: IC50 (μM) PIM2

CN(C)C(=O)c1ccc(F)c(-c2nc(C(=O)Nc3cnccc3N3CCC[C@H](N)C3)c(N)cc2F)c1 [Example 515, 3-Amino-6-(5-dimethylcarbamoyl-2-fluoro-phenyl)-5-fluoro-pyridine-2-carboxylic acid (3-amino-3,4,5,6-tetrahydro-2H-[1,4′]bipyridinyl-3′-yl)-amide]
< 1 µM: [1]; read-out: IC50 (μM) PIM3 | [2]; read-out: IC50 (μM) PIM1 | [3]; read-out: IC50 (μM) PIM2

Nc1cc(-c2ccncc2NC(=O)c2cccc(-c3ccc(N4CCNCC4)cc3)n2)nc(C(F)(F)F)n1 [Example 525, 6-(4-Piperazin-1-yl-phenyl)-pyridine-2-carboxylic acid [4-(6-amino-2-trifluoromethyl-pyrimidin-4-yl)-pyridin-3-yl]-amide]
< 1 µM: [1]; read-out: IC50 (μM) PIM3 | [2]; read-out: IC50 (μM) PIM1 | [3]; read-out: IC50 (μM) PIM2

Nc1cc(-c2ccncc2NC(=O)c2nc(C3=CCNCC3)ccc2N)nc(C(F)(F)F)n1 [Example 526, 5-Amino-1′,2′,3′,6′-tetrahydro-[2,4′]bipyridinyl-6-carboxylic acid [4-(6-amino-2-trifluoromethyl-pyrimidin-4-yl)-byridin-3-yl]-amide]
< 1 µM: [1]; read-out: IC50 (μM) PIM3 | [2]; read-out: IC50 (μM) PIM1 | [3]; read-out: IC50 (μM) PIM2

Nc1cc(-c2ccncc2NC(=O)c2cccc(-c3ccc(F)cc3F)n2)nc(C(F)(F)F)n1 [Example 527, 6-(2,4-Difluoro-phenyl)-pyridine-2-carboxylic acid [4-(6-amino-2-trifluoromethyl-pyrimidin-4-yl)-pyridin-3-yl]-amide]
< 1 µM: [1]; read-out: IC50 (μM) PIM3 | [2]; read-out: IC50 (μM) PIM1 | [3]; read-out: IC50 (μM) PIM2

Nc1cc(-c2ccncc2NC(=O)c2cccc(-c3c(F)cccc3F)n2)nc(C(F)(F)F)n1 [Example 528, 6-(2,6-Difluoro-phenyl)-pyridine-2-carboxylic acid [4-(6-amino-2-trifluoromethyl-pyrimidin-4-yl)-pyridin-3-yl]-amide]
< 1 µM: [1]; read-out: IC50 (μM) PIM3 | [2]; read-out: IC50 (μM) PIM1 | [3]; read-out: IC50 (μM) PIM2

Nc1cc(-c2ccncc2NC(=O)c2cccc(-c3ccccc3F)n2)nc(C(F)(F)F)n1 [Example 529, 6-(2-Fluoro-phenyl)-pyridine-2-carboxylic acid [4-(6-amino-2-trifluoromethyl-pyrimidin-4-yl)-pyridin-3-yl]-amide]
< 1 µM: [1]; read-out: IC50 (μM) PIM3 | [2]; read-out: IC50 (μM) PIM1 | [3]; read-out: IC50 (μM) PIM2

Nc1cc(-c2ccncc2NC(=O)c2cccc(-c3ccccc3)n2)nc(C(F)(F)F)n1 [Example 530, 6-Phenyl-pyridine-2-carboxylic acid [4-(6-amino-2-trifluoromethyl-pyrimidin-4-yl)-pyridin-3-yl]-amide]
< 1 µM: [1]; read-out: IC50 (μM) PIM3 | [2]; read-out: IC50 (μM) PIM1 | [3]; read-out: IC50 (μM) PIM2

Nc1cc(-c2ccncc2NC(=O)c2nc(-c3ccccc3)ccc2N)nc(C(F)(F)F)n1 [Example 531, 3-Amino-6-phenyl-pyridine-2-carboxylic acid [4-(6-amino-2-trifluoromethyl-pyrimidin-4-yl)-pyridin-3-yl]-amide]
< 1 µM: [1]; read-out: IC50 (μM) PIM3 | [2]; read-out: IC50 (μM) PIM1 | [3]; read-out: IC50 (μM) PIM2

CCCOc1ccc(F)c(-c2ccc(N)c(C(=O)Nc3cnccc3-c3cc(N)nc(SC)n3)n2)c1F [Example 532, 3-Amino-6-(2,6-difluoro-3-propoxy-phenyl)-pyridine-2-carboxylic acid [4-(6-amino-2-methylsulfanyl-pyrimidin-4-yl)-pyridin-3-yl]-amide]
< 1 µM: [1]; read-out: IC50 (μM) PIM3 | [2]; read-out: IC50 (μM) PIM1 | [3]; read-out: IC50 (μM) PIM2

CCCOc1ccc(F)c(-c2ccc(N)c(C(=O)Nc3cnccc3-c3cc(N)nc(C)n3)n2)c1F [Example 533, 3-Amino-6-(2,6-difluoro-3-propoxy-phenyl)-pyridine-2-carboxylic acid [4-(6-amino-2-methyl-pyrimidin-4-yl)-pyridin-3-yl]-amide]
< 1 µM: [1]; read-out: IC50 (μM) PIM3 | [2]; read-out: IC50 (μM) PIM1 | [3]; read-out: IC50 (μM) PIM2

CSc1nc(N)cc(-c2ccncc2NC(=O)c2nc(-c3c(F)ccc(OC(C)C)c3F)ccc2N)n1 [Example 536, 3-Amino-6-(2,6-difluoro-3-isopropoxy-phenyl)-pyridine-2-carboxylic acid [4-(6-amino-2-methylsulfanyl-pyrimidin-4-yl)-pyridin-3-yl]-amide]
< 1 µM: [1]; read-out: PIM3 IC50 | [2]; read-out: PIM1 IC50 | [3]; read-out: PIM2 IC50

Cc1nc(N)cc(-c2ccncc2NC(=O)c2nc(-c3c(F)ccc(OC(C)C)c3F)ccc2N)n1 [Example 537, 3-Amino-6-(2,6-difluoro-3-isopropoxy-phenyl)-pyridine-2-carboxylic acid [4-(6-amino-2-methyl-pyrimidin-4-yl)-pyridin-3-yl]-amide]
< 1 µM: [1]; read-out: PIM3 IC50 | [2]; read-out: PIM1 IC50 | [3]; read-out: PIM2 IC50

Cc1cc(-c2ccncc2NC(=O)c2nc(-c3cc(C(=O)NC(C)C)ccc3F)ccc2N)cc(N)n1 [Example 539, 3-Amino-6-(2-fluoro-5-isopropylcarbamoyl-phenyl)-pyridine-2-carboxylic acid (2′-amino-6′-methyl-[4,4′]bi-pyridinyl-3-yl)-amide]
< 1 µM: [1]; read-out: PIM3 IC50 | [2]; read-out: PIM1 IC50 | [3]; read-out: PIM2 IC50

CCNC(=O)c1ccc(F)c(-c2ncc(N)c(C(=O)Nc3cnccc3N3CCC[C@H](N)C3)n2)c1 [Example 540, 5-Amino-2-(5-ethylcarbamoyl-2-fluoro-phenyl)-pyrimidine-4-carboxylic acid (3-amino-3,4,5,6-tetrahydro-2H-[1,4′]bipyridinyl-3′-yl)-amide]
< 1 µM: [1]; read-out: PIM3 IC50 | [2]; read-out: PIM1 IC50 | [3]; read-out: PIM2 IC50

CC(C)Oc1ccc(F)c(-c2ncc(N)c(C(=O)Nc3cnccc3N3CCC[C@H](N)C3)n2)c1 [Example 541, 5-Amino-2-(2-fluoro-5-isopropoxy-phenyl)-pyrimidine-4-carboxylic acid (3-amino-3,4,5,6-tetrahydro-2H-[1,4′]bi-pyridinyl-3′-yl)-amide]
< 1 µM: [1]; read-out: PIM3 IC50 | [2]; read-out: PIM1 IC50 | [3]; read-out: PIM2 IC50

Nc1cnc(-c2cccc(F)c2F)nc1C(=O)Nc1cnccc1N1CCC[C@H](N)C1 [Example 546, 5-Amino-2-(2,3-difluoro-phenyl)-pyrimidine-4-carboxylic acid (3-amino-3,4,5,6-tetrahydro-2H-[1,4′]bipyridinyl-3′-yl)-amide]
< 1 µM: [1]; read-out: PIM3 IC50 | [2]; read-out: PIM1 IC50 | [3]; read-out: PIM2 IC50

CCOc1ccc(F)c(-c2ncc(N)c(C(=O)Nc3cnccc3N3CCC[C@H](N)C3)n2)c1 [Example 548, 5-Amino-2-(5-ethoxy-2-fluoro-phenyl)-pyrimidine-4-carboxylic acid (3-amino-3,4,5,6-tetrahydro-2H-[1,4′]bipyridinyl-3′-yl)-amide]
< 1 µM: [1]; read-out: PIM3 IC50 | [2]; read-out: PIM1 IC50 | [3]; read-out: PIM2 IC50

COc1ccccc1-c1ncc(N)c(C(=O)Nc2cnccc2N2CCC[C@H](N)C2)n1 [Example 551, 5-Amino-2-(2-methoxy-phenyl)-pyrimidine-4-carboxylic acid (3-amino-3,4,5,6-tetrahydro-2H-[1,4′]bipyridinyl-3′-yl)-amide]
< 1 µM: [1]; read-out: PIM3 IC50 | [2]; read-out: PIM1 IC50 | [3]; read-out: PIM2 IC50

CC(C)NC(=O)c1ccc(F)c(-c2cccc(C(=O)Nc3cnccc3-c3cc(N)nc(C(F)(F)F)n3)n2)c1 [Example 553, 6-(2-Fluoro-5-isopropylcarbamoyl-phenyl)-pyridine-2-carboxylic acid [4-(6 amino-2-trifluoromethyl-pyrimidin-4-yl)-pyridin-3-yl]-amide]
< 1 µM: [1]; read-out: PIM3 IC50 | [2]; read-out: PIM1 IC50 | [3]; read-out: PIM2 IC50

CC(C)NC(=O)c1ccc(F)c(-c2ccc(N)c(C(=O)Nc3cnccc3-c3cc(N)nc(C(F)(F)F)n3)n2)c1 [Example 554, 3-Amino-6-(2-fluoro-5-isopropylcarbamoyl-phenyl)-pyridine-2-carboxylic acid [4-(6-amino-2-trifluoromethyl-pyrimidin-4-yl)-pyridin-3-yl]-amide]
< 1 µM: [1]; read-out: PIM3 IC50 | [2]; read-out: PIM1 IC50 | [3]; read-out: PIM2 IC50

CCc1cccc(-c2ccc(N)c(C(=O)Nc3cnccc3-c3cc(N)nc(C)n3)n2)c1 [Example 555, 3-Amino-6-(3-ethyl-phenyl)-pyridine-2-carboxylic acid [4-(6-amino-2-methyl-pyrimidin-4-yl)-pyridin-3-yl]-amide]
< 1 µM: [1]; read-out: PIM3 IC50 | [2]; read-out: PIM1 IC50 | [3]; read-out: PIM2 IC50
